We go through two compounds from PMC5450539, “Anti-Inflammatory Activity and Structure-Activity Relationships of Brominated Indoles from a Marine Mollusc” (Marine Drugs, 2017).

SMILES strings stand for the structures. Several values for one entry are separate records, joined by “and”; a condition that tells them apart may be missing. Equal values may be shown once. Read-outs that look alike come from different tables or passages of the source. Where only a bound is given, the exact number is not on record here.

One data set can be described thus: in vitro. The following applies: mouse. As for the experimental part: (§1) All extract/compounds were dissolved in DMSO and tested at 5 different concentrations of 50, 10, 2, 0.4, and 0.08 μg/mL for all anti-inflammatory assays unless otherwise noted. The final concentration of DMSO was 0.35% v/v for extracts and compounds. All samples were tested in triplicate at each concentration and each assay was independently repeated at least 3 times. The concentrations used for the cytotoxicity assays were 50, 25, 12.5, 6.25. and 3.125 μg/mL.
(§2) To check for cytotoxicity of the extracts and compounds against RAW264.7 mouse macrophage and 3T3 ccl-92 mouse fibroblast cell lines, the crystal violet cytotoxicity test was used according to the published protocol. In brief, RAW264.7 cells were seeded with a density of 2 × 10^4 cells/well in a 96-well plate and then incubated for 18–24 h. The following day the compounds/extracts were added and then incubated for 24 h before the media was aspirated and the cells washed twice in a gentle stream of water. After removing the water, 50 µL of 0.5% crystal violet staining solution were added and the cells were incubated for 20 min at room temperature. The plate was then washed 4 times with water and air dried for 2 h. Finally, 200 μL of methanol was added to each well and incubated for 20 min at room temperature on a rocker. This was followed by measuring the optical density at 570 nm with a plate reader Anthos Zenyth 200rt (Anthos Labtec Instruments, Heerhugowaard, The Netherlands). Chlorambucil was used as a positive control.

Data set [1] is described as follows: Crystal violet cytotoxicity assay, 3T3 ccl-92. It counts as cell-based, mouse. The following applies: mouse, 3T3 ccl-92 fibroblast cells; 3T3, 50 µg/mL, 24 h incubation, compared to DMSO-treated wells. How it is done:
as §1, §2

For data set [2], the system named is 3T3 ccl-92 mouse fibroblast. Nature of the data set: Crystal violet cytotoxicity assay, 3T3 ccl-92. It counts as cell-based. The following applies: 24 h incubation; max test concentration 50 µg/mL; > = <50% reduction in viability at max. How it is done:
as §1, §2

Data set [3] relates to nitric oxide (NO) production. Nature of the data set: NO inhibition assay (Greiss) in LPS-stimulated RAW264.7 macrophages. The format is cell-based, mouse. The following applies: for reduction of NO production: 50 µg/mL (maximum test concentration), relative to DMSO control; for IC50: Mus musculus. As for the experimental part:
RAW264.7 macrophages were incubated 1 h with extracts/compounds prior to the addition of LPS. […] Then, 20 h after the addition of LPS, the supernatant was collected. […] The plates were incubated for 15–20 min in the dark, then read at 550 nm wavelength on an Anthos Zenyth 200rt (Anthos Labtec Instruments). Sodium nitrite was used to prepare a standard curve to quantify the nitrite from the absorbance readings in this assay. All data were processed in Microsoft Office Excel 2013 (MS) first to obtain descriptive statistics. One-way Analysis of Variance (ANOVA) followed by Dunnett’s multiple comparisons test was performed using GraphPad Prism version 6.00 for Windows (GraphPad Software, La Jolla, CA, USA, www.graphpad.com), with p < 0.05 considered significant.

The test system of another data set is TNFα production. Description: TNF-alpha inhibition assay (ELISA) in LPS-stimulated RAW264.7 macrophages. The format is cell-based, mouse. The following applies: for IC50: Mus musculus. As for the experimental part:
The amount of TNFα was quantified in cell culture media using murine TNFα ELISA kits (BD bioscience). In brief, the RAW264.7 mouse macrophages (6 × 10^5 cells/mL) were stimulated with LPS (100 ng/mL) 1 h after treatment with several concentrations of extracts (0.08–50 μg/mL). After 18 h, the supernatant was collected and TNFα production was measured by reading the absorbance at 450 nm wavelength on an Anthos Zenyth 200rt microplate reader (Anthos Labtech Instruments). Dexamethasone at a concentration of 2.5 μM was used as a positive control, with a negative control of 0.35% DMSO.
All data were processed in Microsoft Office Excel 2013 (MS) first to obtain descriptive statistics. One-way Analysis of Variance (ANOVA) followed by Dunnett’s multiple comparisons test was performed using GraphPad Prism version 6.00 for Windows (GraphPad Software, La Jolla, CA, USA, www.graphpad.com), with p < 0.05 considered significant. The inhibitory concentration responsible for a 50% reduction in cell viability or production of inflammatory markers (IC50) was calculated using the regression analysis, Probit in SPSS v21.
On the technique in general: ELISA stands for enzyme-linked immunosorbent assay.

A further data set has as its system NFκB translocation. Nature of the data set: Assessment of NFκB translocation in LPS-stimulated RAW264.7. The format is cell-based. The following applies: Mus musculus, RAW264.7, 40 µg/mL, LPS-stimulated RAW264.7, relative to DMSO + LPS. As for the experimental part:
This assay was performed according to the published protocol in Olivera et al.. RAW264.7 mouse macrophages were seeded at 400,000 cells/well in 800 μL in 4-well chambered slides and incubated overnight. The cells were then incubated with the test samples (40 μg/mL HBG extract, 6-bromoisatin, or 6-bromoindole) for 1 h prior to stimulation with LPS (700 ng/mL) for 30 min. After stimulation, the cells were washed with PBS and fixed with 3.7% paraformaldehyde for 15 min. […] The cells were washed with PBS and incubated with rabbit anti-p65 NFκB antibody (1:500) and goat anti-mouse IκB (1:500) overnight at 4 °C. The following day, the cells were washed again three times with PBS and incubated for 1 h with goat-anti-rabbit IgG conjugated with Alexa Fluor 594 (1:1000) and donkey anti-mouse IgG conjugated with Alexa fluor 488 (1:1000) at room temperature. Finally, the cells were washed with PBS then mounted with Prolong mounting media containing DAPI before visualising using the Olympus Flouview FVi10 confocal microscope (Olympus, Tokyo, Japan). Using ImageJ (v1.50i, National Institutes of Health, Bethesda, MD, USA), an outline was drawn around each nucleus by adjusting the colour threshold of DAPI. Mean fluorescence inside the nucleus was measured, along with several adjacent background readings. The total corrected cellular fluorescence (TCCF) was calculated by applying the equation TCCF = integrated density − (area of selected cell × mean fluorescence of background readings). This TCCF was then used to calculate the %inhibition of the NFκB translocation against the positive control where the cells were treated with LPS in the presence of the Vehicle (0.35% DMSO v/v) in Microsoft Office Excel 2013 (Redmond, WA, USA).

The test system of the next data set is NO production. Set-up: method as in Matheus et al. [37]. The following applies: LPS and interferon-γ induced, RAW264.7; ref Matheus et al. [37]; cited from earlier work.
The subject of the next data set is TNFα. Set-up: method as in Matheus et al. [37]. The following applies: minimum effective dose not established; ref Matheus et al. [37]; cited from earlier work.
[4] abbreviates: RAW264.7, LPS-stimulated RAW264.7, max test concentration 50 µg/mL, read-out: NO IC50.

In the case of `O=C1Nc2c(Br)cccc2C1=O` [7-bromoisatin], the viability – broadly, a read-out of living cells in per cent, often relative to untreated cells – at 24 h, 50 µg/mL was found to be 81.9% in the data set “in vitro” and 80.9% in data set [1]. Also, the “Cytotoxicity 3T3 ccl-92 (test concentration which causes toxicity)” value in data set [2] is above 221.21 µM. In data set [3], the “reduction of NO production” value is listed as “less than 5%”. Besides, the half-maximal inhibitory concentration (IC50) (commonly the midpoint of a concentration-inhibition curve) in data set [3] (setting [4]) is above 50 µg/mL.
As for `O=C1Nc2ccccc2C1=O` [isatin], in data set [2], the “Cytotoxicity 3T3 ccl-92 (test concentration which causes toxicity)” value is on record as “NA (not active at maximum test concentration 50 µg/mL)”. The “reduction of NO production” value in data set [3] came out at 34%. Moreover, the IC50 in data set [3] (setting [4]) is around 340 µM; in data set [3] (RAW264.7, predicted, above maximum test concentration 50 μg/mL, read-out: predicted NO IC50), 63.3 µg/mL and 430 µM; in the data set on TNFα production (RAW264.7, LPS-stimulated RAW264.7, max test concentration 50 µg/mL, read-out: TNFα IC50) it was above 340 µM; in the data set with TNFα production (RAW264.7, LPS-stimulated RAW264.7, read-out: TNFα IC50), above 50 µg/mL; in the data set with TNFα production (RAW264.7, predicted, above the maximum test concentration, read-out: predicted TNFα IC50), 717 µM. The “lowest concentration with significant inhibition of TNFα” value in the data set with TNFα production was determined as 0.5 µM. In addition, the inhibition (usually the share of the control response that was lost under treatment) at 40 µg/mL with NFκB translocation stood at 45.7%. Also, in the data set with NO production, the “concentrations significantly inhibiting NO production” value was 10 to 100 µM. Further, the “concentration at which TNFα was inhibited” value in the data set with TNFα was 100 µM.
